Assay results published in patent publication US4783443A, “Amino acyl cephalosporin derivatives” (The University of Chicago, priority 1986, dated 1988).
In brackets after ≈: the same amount, converted by molar mass. Counter-ions that a name gives are not always drawn. Like-named read-outs stand apart in the source and are kept apart here.

Tests used:
[1] = target: E. coli TEM beta-lactamase (Escherichia coli, UniProt P62593); assay: Kinetics of enzymatic turnover by E. coli TEM beta-lactamase; assay type: biochemical; details: for binding to the lactamase (KM approximating KS): effect of the C10-dipeptidyl substituent
E. coli TEM beta-lactamase, sequence (P62593 24-286 limits assumed): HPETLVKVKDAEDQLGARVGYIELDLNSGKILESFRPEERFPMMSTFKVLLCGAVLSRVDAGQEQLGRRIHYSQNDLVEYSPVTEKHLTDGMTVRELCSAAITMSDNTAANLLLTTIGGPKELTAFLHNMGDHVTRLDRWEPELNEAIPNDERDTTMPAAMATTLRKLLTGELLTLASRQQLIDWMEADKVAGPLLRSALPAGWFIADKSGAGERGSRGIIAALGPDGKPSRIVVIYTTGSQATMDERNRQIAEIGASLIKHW
Protocol: Escherichi coli TEM beta-lactamase was purchased from Applied Microbiology and Research, Porton Down, U.K. L-Alanyl-L-alanine was purchase from Sigma; N-BOC-LAla-LAla and N-BOC-beta-Cl-LAla-beta-Cl-LAla were prepared as described previously. Cheung et al supra. All other reagents were of the best grade commercially available.
Kinetic Constants for the Reactions of E. coli TEM beta-Lactamase with Cephalothin and the Cephalosporin Peptide Esters 7 and 17.

[2] = tested on: Staphylococcus epidermidis MO1554(P^S M^S); assay: Minimum inhibitory concentration (MIC); assay type: cell-based; details: Staphylococcus epidermidis MO1554 (penicillin- and methicillin-sensitive, P^S M^S)
Excerpt: (§1) The antibacterial effects of compounds of the invention have been assessed by determination of the minimum inhibitory concentration (M.I.C.) value against a variety of Gram-negative and -positive bacteria. The microbial susceptibility data for four compounds, together with those for the antibacterial dipeptide beta-Cl-LAla-beta-Cl-LAla, are given in Table I.
(§2) in uM to facilitate a meaningful comparison of the approximate MICs among
(§3) the tested compounds; an appreciation of the MIC values in ug/mL can be
(§4) obtained by multiplying each value (μM) by 0.55
(§5) ^(k) P and M refer to penicillin and methicillin, respectively.

[3] = tested on: Staphylococcus epidermidis (P^R M^R); assay: Minimum inhibitory concentration (MIC); assay type: cell-based; details: no strain number
Excerpt: as §1, §2, §3, §4, §5

[4] = tested on: Staphylococcus epidermidis 1239(P^R M^R); assay: Minimum inhibitory concentration (MIC); assay type: cell-based
Excerpt: as §1, §2, §3, §4, §5

[5] = tested on: Escherichia coli JSR-O Cl-Pep^R; assay: Minimum inhibitory concentration (MIC); assay type: cell-based; details: Escherichia coli, read-out: Minimum Inhibitory Concentration
Excerpt: as §1, §2, §3, §4
^(g) This ia an E. coli JSRO strain selected for resistance to the
A comparison of the data for E. coli strains JSR-O and JSR-O Cl-Pep^R is of special interest. E. coli Cl-Pep^R is an E. coli JSR-O mutant which was selected for resistance to the dipeptide (f). […] Note that the MIC values for (d) and (e) against E. coli Cl-Pep^R (100 and 50 μM, respectively) are quite similar.

[6] = tested on: Staphylococcus aureus PSL-13 Pen^R; assay: Minimum inhibitory concentration (MIC); assay type: cell-based; details: possesses a betalactamase
Excerpt: as §1, §2, §3, §4

Enterobacter areogenes = assay: Minimum inhibitory concentration (MIC); assay type: cell-based; details: Gram-negative
Excerpt: as §1, §2, §3, §4

[7] = tested on: Hemophilus influenzae 487; assay: Minimum inhibitory concentration (MIC); assay type: cell-based; details: Haemophilus influenzae, possesses a betalactamase
Excerpt: as §1, §2, §3, §4

Escherichia coli JSR-O = assay: Minimum inhibitory concentration (MIC); assay type: cell-based; details: read-out: Minimum Inhibitory Concentration
Excerpt: as §1, §2, §3, §4

Serratia marcescens = assay: Minimum inhibitory concentration (MIC); assay type: cell-based; details: Gram-negative
Excerpt: as §1, §2, §3, §4

[8] = tested on: Staphylococcus aureus PSL-15 Pen^R; assay: Minimum inhibitory concentration (MIC); assay type: cell-based; details: possesses a betalactamase
Excerpt: as §1, §2, §3, §4

[9] = tested on: Hemophilus influenzae 236; assay: Minimum inhibitory concentration (MIC); assay type: cell-based; details: Haemophilus influenzae
Excerpt: as §1, §2, §3, §4

[10] = tested on: Staphylococcus aureus PSL-14 Pen^R; assay: Minimum inhibitory concentration (MIC); assay type: cell-based; details: possesses a betalactamase
Excerpt: as §1, §2, §3, §4

[11] = tested on: Staphylococcus aureus H-2690-8^R; assay: Minimum inhibitory concentration (MIC); assay type: cell-based; details: possesses a betalactamase
Excerpt: as §1, §2, §3, §4

Shigella flexneri = assay: Minimum inhibitory concentration (MIC); assay type: cell-based; details: Gram-negative
Excerpt: as §1, §2, §3, §4

[12] = tested on: Staphylococcus aureus T-4624-8 Pen^R; assay: Minimum inhibitory concentration (MIC); assay type: cell-based; details: possesses a betalactamase
Excerpt: as §1, §2, §3, §4

[13] = tested on: Staphylococcus aureus PSL-16 Pen^R; assay: Minimum inhibitory concentration (MIC); assay type: cell-based; details: possesses a betalactamase
Excerpt: as §1, §2, §3, §4

Streptococcus faecalis = assay: Minimum inhibitory concentration (MIC); assay type: cell-based; details: Enterococcus faecalis, read-out: Minimum Inhibitory Concentration
Excerpt: as §1, §2, §3, §4

Salmonella typhimurium = assay: Minimum inhibitory concentration (MIC); assay type: cell-based; details: Salmonella enterica, Gram-negative
Excerpt: as §1, §2, §3, §4

Streptococcus agalactiae = assay: Minimum inhibitory concentration (MIC); assay type: cell-based; details: Gram positive
Excerpt: as §1, §2, §3, §4

Psuedomonas aeruginosa = assay: Minimum inhibitory concentration (MIC); assay type: cell-based; details: Gram-negative
Excerpt: as §1, §2, §3, §4

Escherichia coli DB4548 = assay: Minimum inhibitory concentration (MIC); assay type: cell-based
Excerpt: as §1, §2, §3, §4

Escherichia coli CR = assay: Minimum inhibitory concentration (MIC); assay type: cell-based; details: read-out: Minimum Inhibitory Concentration
Excerpt: as §1, §2, §3, §4

Morganella morganii = assay: Minimum inhibitory concentration (MIC); assay type: cell-based; details: Gram-negative
Excerpt: as §1, §2, §3, §4

[14] = tested on: Hemophilus influenzae 238; assay: Minimum inhibitory concentration (MIC); assay type: cell-based; details: Haemophilus influenzae
Excerpt: as §1, §2, §3, §4

Enterobacter cloacae = assay: Minimum inhibitory concentration (MIC); assay type: cell-based; details: read-out: Minimum Inhibitory Concentration
Excerpt: as §1, §2, §3, §4

Klebsiella pneumoniae = assay: Minimum inhibitory concentration (MIC); assay type: cell-based; details: Gram-negative
Excerpt: as §1, §2, §3, §4

[15] = tested on: Salmonella typhimurium LT 2; assay: Minimum inhibitory concentration (MIC); assay type: cell-based; details: Salmonella enterica, Gram-negative
Excerpt: as §1, §2, §3, §4

[16] = tested on: Gram-negative and -positive bacteria; assay: Antibacterial activity, general trends of the MIC panel of Table I; assay type: cell-based; details: for sensitivity observed: H. influenzae 487, all of the S. aureus strains
Excerpt: as §1

[17] = tested on: Escherichia coli JSR-O pBR322; assay: Minimum inhibitory concentration (MIC); assay type: cell-based; details: read-out: Minimum Inhibitory Concentration
Excerpt: as §1, §2, §3, §4
^(i) Contains the plasmid gene encoding the TEM betalactamase.

Escherichia coli Ceph^R = assay: Minimum inhibitory concentration (MIC); assay type: cell-based; details: Escherichia coli, read-out: Minimum Inhibitory Concentration
Excerpt: as §1, §2, §3, §4
(§6) ^(j) Resistant to cephalothin (MIC >200 uM);

Corynebacterium JKR-2285 = assay: Minimum inhibitory concentration (MIC); assay type: cell-based
Excerpt: as §1, §2, §3, §4, §6

Corynebacterium JKM-4754 = assay: Minimum inhibitory concentration (MIC); assay type: cell-based
Excerpt: as §1, §2, §3, §4, §6

[18] = E. cloacae, all of the susceptible E. coli strains
[19] = JKR2285, Corynebacterium JKR-2285, resistant to cephalothin, read-out: Minimum Inhibitory Concentration
[20] = JKM4754, Corynebacterium JKM-4754, resistant to cephalothin, read-out: Minimum Inhibitory Concentration

SMILES	Vmax compared with cephalothin [1]	substrate for the lactamase [1]	binding to the lactamase (KM approximating KS) [1]	MIC [2]	MIC [3]	MIC [4]	MIC [5]	MIC [6]	MIC (Enterobacter areogenes)	MIC [7]	MIC (Serratia marcescens)	MIC [8]	MIC [9]	MIC [10]	MIC [11]	MIC (Shigella flexneri)	MIC [12]	MIC [13]	MIC (Salmonella typhimurium)	MIC (Escherichia coli Ceph^R)	other results
C[C@H](N)C(=O)N[C@@H](C)C(=O)OCC1=C(C(=O)O)N2C(=O)[C@@H](NC(=O)Cc3cccs3)[C@H]2SC1 [(d), Sodium 7-beta-(2-thienylacetamido)-3-(L-alanyl-L-alanyloxymethyl)-3-cephem-4-carboxylate, toluenesulfonic acid salt]	substantially greater than that obtained for cephalothin	found to be substrates for the E. coli TEM beta-lactamase	do not compromise the binding of the cephalosporin nucleus to the lactamase	≤ 0.78 µM	≤ 0.78 µM	≤ 0.78 µM	100 µM	> 200 µM	> 200 µM	12.5 µM	> 200 µM	> 200 µM	50 µM	> 200 µM	25 µM	100 µM	25 µM	200 µM	100 µM	> 200 µM	MIC (Escherichia coli JSR-O; Escherichia coli JSR-O, parental strain): 200 µM; MIC (Streptococcus faecalis; Streptococcus faecalis, Gram positive): 50 µM; MIC (Streptococcus agalactiae): ≤ 0.78 µM; MIC (Psuedomonas aeruginosa): > 200 µM; MIC (Escherichia coli DB4548): 50 µM; MIC (Escherichia coli CR; Escherichia coli CR): 200 µM; MIC (Morganella morganii): 100 µM; MIC [14]: ≤ 0.78 µM; MIC (Enterobacter cloacae; Gram-negative): 200 µM; MIC (Klebsiella pneumoniae): > 200 µM; MIC [15]: 25 µM; sensitivity observed [16, 18]: no activity was seen; MIC [17]: > 200 µM; MIC (Corynebacterium JKR-2285; [19]): > 200 µM; MIC (Corynebacterium JKM-4754; [20]): > 200 µM
N[C@@H](CCl)C(=O)N[C@@H](CCl)C(=O)OCC1=C(C(=O)O)N2C(=O)[C@@H](NC(=O)Cc3cccs3)[C@H]2SC1 [(e), 7-beta-(2-thienylacetamido)-3-(beta-chloro-L-alanyl-beta-chloro-L-alanyloxymethyl)-3-cephem-4-carboxylate]	substantially greater than that obtained for cephalothin	found to be substrates for the E. coli TEM beta-lactamase	do not compromise the binding of the cephalosporin nucleus to the lactamase	≤ 0.78 µM	≤ 0.78 µM	≤ 0.78 µM	50 µM (≈ 28.3 µg/mL)	≤ 0.78 µM	200 µM (≈ 113 µg/mL)	3.12 µM (≈ 1.76 µg/mL)	> 200 µM	1.56 µM (≈ 0.882 µg/mL)	25 µM (≈ 14.1 µg/mL)	1.56 µM (≈ 0.882 µg/mL)	≤ 0.78 µM	50 µM (≈ 28.3 µg/mL)	≤ 0.78 µM	1.56 µM (≈ 0.882 µg/mL)	50 µM (≈ 28.3 µg/mL)	12.5 µM (≈ 7.07 µg/mL)	MIC (Escherichia coli JSR-O; Escherichia coli): 12.5 µM (≈ 7.07 µg/mL); MIC (Streptococcus faecalis): 12.5 µM (≈ 7.07 µg/mL); MIC (Streptococcus agalactiae): ≤ 0.78 µM; MIC (Psuedomonas aeruginosa): > 200 µM; MIC (Escherichia coli DB4548): 6.25 µM (≈ 3.53 µg/mL); MIC (Escherichia coli CR; Escherichia coli): 12.5 µM (≈ 7.07 µg/mL); MIC (Morganella morganii): 50 µM (≈ 28.3 µg/mL); MIC [14]: ≤ 0.78 µM; MIC (Enterobacter cloacae): 12.5 µM (≈ 7.07 µg/mL); MIC (Klebsiella pneumoniae): > 200 µM; MIC [15]: 25 µM (≈ 14.1 µg/mL); detectable activity among the cephalosporins ([16]; E. cloacae, all of the susceptible E. coli strains, Corynebacterium strains, S. faecalis): the only cephalosporin with detectable activity; sensitivity observed [16, 18]: sensitivity was observed; insensitivity / resistance ([16]; P. aeruginosa, S. marcescens and K. pneumoniae): resistant; sensitivity ([16]; S. aureus strains, Corynebacterium JK strains, S. faecalis, H. influenzae 487, E. coli JSR-O and E. cloacae): sensitive; antimicrobial potency compared with the other cephalosporins ([16]; Table I, all strains): by-and-large a more potent antimicrobial agent than the other three cephalosporins (b), (c) and (d); antibiotic potency of (e) versus amino acid ester (c) ([16]; strains sensitive to both (c) and (e)): invariably more potent an antibiotic than is the amino acid ester (c); MIC [17]: 6.25 µM (≈ 3.53 µg/mL); MIC (Corynebacterium JKR-2285; [19]): 3.12 µM (≈ 1.76 µg/mL); MIC (Corynebacterium JKM-4754; [20]): 3.12 µM (≈ 1.76 µg/mL)
CC(=O)OCC1=C(C(=O)O)N2C(=O)[C@@H](NC(=O)Cc3cccs3)[C@H]2SC1 [cephalothin, reference compound]	–	–	–	–	–	–	–	–	–	–	–	–	–	–	–	–	–	–	–	> 200 µM	MIC (Corynebacterium JKR-2285; Corynebacterium, JKR2285, read-out: Minimum Inhibitory Concentration): > 200 µM; MIC (Corynebacterium JKM-4754; Corynebacterium, JKM4754, read-out: Minimum Inhibitory Concentration): > 200 µM
